Data as given in patent publication US20250090439A1, “COMPOSITION COMPRISING HYDRANGENOL AS ACTIVE INGREDIENT FOR IMPROVING HAIR OR SCALP CONDITION” (COSMAX BIO CO., LTD., priority 2021, published 2025).

Experiments:
HFDPC cell lines = assay: Cell proliferation in dermal papilla cells (MTT assay); format: cell-based, human; conditions: treated for 3 and 6 days, 25 μg/ml and 50 μg/ml
Method: Based on the results of the dermal papilla cell toxicity test confirmed above, the cell proliferation effect of the Hydrangea serrata extract and hydrangenol obtained in Examples 1 and 2 was confirmed. HFDPC cell lines were seeded into a 96-well plate at a concentration of 1.0×10^3 cells/well and incubated in a CO2 incubator conditioned at 37° C., 95% humidity, and 5% CO2 for 24 hours. Subsequently, after treatment with samples at each concentration, cell proliferation was measured by MTT assay after 1, 3, and 6 days of incubation. More specifically, after treatment with samples of each concentration, the incubation was proceeded for 24, 72, and 144 hours, and then each cell was treated with 100 μl of 0.5 mg/ml MTT solution, and after 4 hours, the solution was completely removed and the plates dissolved in DMSO were measured at an absorbance of […].

5α-reductase = biological target: T1, 5α-reductase (Rattus norvegicus, UniProt P24008); assay: 5α-reductase enzyme activity inhibition (rat liver homogenate, testosterone quantified by HPLC); format: biochemical; conditions: treated at 125 μg/ml, 250 μg/ml, or 500 μg/ml; 37° C., 30 minutes; FIGS. 7A and 7B
T1 construct: After centrifuging the homogenate at 10,000 xg for 10 minutes, the supernatant was […] to prepare an enzyme solution; from tissue; host or cells: liver of 7-week-old male SD rat (10,000 x g supernatant of homogenate)
T1 sequence (P24008 1-259): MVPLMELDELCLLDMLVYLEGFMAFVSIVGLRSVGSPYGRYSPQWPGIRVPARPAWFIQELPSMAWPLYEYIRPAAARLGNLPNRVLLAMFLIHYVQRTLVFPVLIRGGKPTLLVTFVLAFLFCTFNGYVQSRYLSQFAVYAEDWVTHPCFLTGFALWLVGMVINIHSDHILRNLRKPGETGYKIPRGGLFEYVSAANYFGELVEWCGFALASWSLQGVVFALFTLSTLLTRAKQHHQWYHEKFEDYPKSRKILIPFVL
Method: 5α-reductase reduces testosterone to produce dihydrotestosterone (DHT). After reacting rat liver homogenate with testosterone, the ability to inhibit 5α-reductase enzyme activity was measured using a method of quantify testosterone.
First, a 7-week-old male SD rat was prepared and anesthetized using ethyl ether. After SD rats were laparotomised, the hepatic portal vein thereof was nicked, and cold STM buffer (270 mM sucrose, 10 mM Tris-HCl, pH7.5, 1 mM MgCl2, G-biosciences, USA) was injected into the left ventricle using a syringe. The injection was continued until the STM buffer was perfused into the liver and the color of the liver changed from dark red to light pink. Afterwards, the liver was removed, transferred to a beaker, cut with scissors, and homogenized after adding STM buffer in an amount three times that of the liver. After centrifuging the homogenate at 10,000 xg for 10 minutes, the supernatant was […] to prepare an enzyme solution. […] The dichloromethane layer was separated, concentrated, dissolved in 50% methanol, and quantified using high-performance chromatography. The 5α-reductase inhibition ability was calculated using the formula: 5α-reductase inhibition ability (%)=[1−(area value of sample-area value of blank sample)/(area value of test group-area value of blank sample)]×100.

[1] = tested on: human follicle dermal papilla cells (HFDPC); assay: Cytotoxicity in dermal papilla cells (MTT assay); format: cell-based; conditions: 24 hours
Method: It was confirmed whether the Hydrangea serrata extract and hydrangenol obtained according to Examples 1 and 2 were cytotoxic to human follicle dermal papilla cells (HFDPC).
HFDPC cells were cultured in follicle dermal papilla cell growth medium including supplement mix (5% fetal calf serum, 0.5% bovine pituitary extract, 0.5 μg basic fibroblast growth factor, and 2.5 mg insulin) and 1% antibiotic antimycotic solution. HDFPC cell lines were seeded into a 96-well plate at a concentration of 1.0×10^4 cells/well and incubated in a CO2 incubator conditioned at 37° C., 95% humidity, and 5% CO2 for 24 hours. Subsequently, the medium was replaced with medium without supplement mix and was treated with samples of each concentration and after 24 hours of incubation, cell viability was measured by MTT assay. The MTT assay is a method to measure the amount of formazan formed from MTT reduced by the mitochondria of living cells. More specifically, 100 μl of 0.5 mg/mL MTT solution was applied to each cell and incubated for 4 hours. Then, the solution was completely removed and the absorbance of the plate dissolved in DMSO was measured at 540 nm.

With O=C1OC(c2ccc(O)cc2)Cc2cccc(O)c21 (stereo not shown) [hydrangenol, 8-hydroxy-3-(4-hydroxyphenyl)-3,4-dihydroisochromen-1-one] the “cell growth (cell proliferation by MTT)” value (HFDPC cell lines) was “cell growth was significantly increased”, the 5α-reductase inhibitory activity (5α-reductase) was 5α-reductase inhibitory activity in a concentration-dependent manner and the “cytotoxicity (cell viability by MTT)” value ([1]; 1.56, 3.12, 6.25, 12.5, 25, 50 and 100 μg/ml) was “no cytotoxicity was shown at all concentrations”. For the same compound, the cell growth ([1]; concentrations of 3.12 μg/ml to 100 μg/ml) was “significantly increase cell growth”.
